{"source": "paper PMC6481345", "about": "“A novel anti-melanoma SRC-family kinase inhibitor” (Oncotarget, 2019)", "key": {"YES1": {"biological_target": "YES1 (Homo sapiens, UniProt P07947)", "sequence (P07947 whole entry)": "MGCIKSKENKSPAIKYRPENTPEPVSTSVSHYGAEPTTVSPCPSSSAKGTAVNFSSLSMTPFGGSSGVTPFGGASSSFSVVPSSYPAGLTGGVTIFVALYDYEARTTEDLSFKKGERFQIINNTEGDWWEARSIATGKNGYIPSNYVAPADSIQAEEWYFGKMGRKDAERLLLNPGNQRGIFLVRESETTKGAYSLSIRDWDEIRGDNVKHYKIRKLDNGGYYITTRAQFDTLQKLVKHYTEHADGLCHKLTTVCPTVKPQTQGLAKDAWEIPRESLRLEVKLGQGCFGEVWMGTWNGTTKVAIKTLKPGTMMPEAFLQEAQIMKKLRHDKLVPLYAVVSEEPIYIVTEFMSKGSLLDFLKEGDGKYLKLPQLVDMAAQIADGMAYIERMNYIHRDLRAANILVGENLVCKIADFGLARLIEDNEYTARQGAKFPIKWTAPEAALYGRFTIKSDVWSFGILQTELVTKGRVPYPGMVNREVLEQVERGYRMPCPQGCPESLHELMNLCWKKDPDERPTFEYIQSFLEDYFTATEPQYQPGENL", "assay": "KiNativ in situ kinase profiling in melanoma cell lysates", "format": "binding", "parameters": "the endogenous kinome response to SAB298 (0.05 µM, 0.5 µM and 5 µM) in lysates from two melanoma cell lines; host or cells: YUSIV melanoma cell lysate (not present in YUSIK)", "conditions": "YES1 in YUSIV lysate; 3-point dose response", "method": "(§1) The effect of SAB298 on a panel of 36 recombinant kinases, was screed with the radioisotope filter binding assay employing 10 concentrations of the compound with 10 µM ATP (Reaction Biology Corporation, Malvern, PA). In addition, we tested the endogenous kinome response to SAB298 (0.05 µM, 0.5 µM and 5 µM) in lysates from two melanoma cell lines (YUSIV and YUSIK) employing the KiNativ® platform (ActivX Biosciences Inc., La Jolla, CA). KiNativ® is a robust, high performance mass spectrometry (LC-MS^2) assay that uses biotinylated probes to measure relevant changes in the affinity to the ATP-binding sites of 205 native kinases as a function of cellular context. We also validated SAB298 effect on the activity of SRC-family kinases by probing for phosphorylated Y416, the marker of activated SFKs, with anti-IEDNEpYTAR antibodies (also known as Y419, #2101, Cell Signaling Technology, Beverly, MA). In some cases the cells were incubated overnight with 20 µM proteasome inhibitor MG-132 (CAS 133407-82-6, Millipore Sigma, Burlington, MA) to rescue degradation."}, "LCK": {"biological_target": "LCK (Homo sapiens, UniProt P06239)", "sequence (P06239 whole entry)": "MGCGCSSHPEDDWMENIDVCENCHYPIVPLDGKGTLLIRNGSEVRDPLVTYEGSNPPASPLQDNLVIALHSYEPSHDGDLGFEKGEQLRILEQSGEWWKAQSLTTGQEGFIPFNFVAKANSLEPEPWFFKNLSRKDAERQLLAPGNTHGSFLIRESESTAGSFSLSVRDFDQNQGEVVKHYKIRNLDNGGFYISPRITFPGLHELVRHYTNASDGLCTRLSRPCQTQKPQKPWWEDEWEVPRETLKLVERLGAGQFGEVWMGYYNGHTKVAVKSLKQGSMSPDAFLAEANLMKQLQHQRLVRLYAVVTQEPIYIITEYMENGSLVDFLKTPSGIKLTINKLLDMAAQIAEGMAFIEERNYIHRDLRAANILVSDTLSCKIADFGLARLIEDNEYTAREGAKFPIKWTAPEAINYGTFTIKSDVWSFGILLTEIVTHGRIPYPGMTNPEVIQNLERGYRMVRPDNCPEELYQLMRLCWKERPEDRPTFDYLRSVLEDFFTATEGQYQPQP", "assay": "KiNativ in situ kinase profiling in melanoma cell lysates", "format": "binding", "parameters": "we tested the endogenous kinome response to SAB298; host or cells: YUSIV or YUSIK melanoma cell lysate", "conditions": "LCK in YUSIV lysate; 3-point dose response", "method": "as §1"}, "CSK": {"biological_target": "CSK (Homo sapiens, UniProt P41240)", "sequence (P41240 whole entry)": "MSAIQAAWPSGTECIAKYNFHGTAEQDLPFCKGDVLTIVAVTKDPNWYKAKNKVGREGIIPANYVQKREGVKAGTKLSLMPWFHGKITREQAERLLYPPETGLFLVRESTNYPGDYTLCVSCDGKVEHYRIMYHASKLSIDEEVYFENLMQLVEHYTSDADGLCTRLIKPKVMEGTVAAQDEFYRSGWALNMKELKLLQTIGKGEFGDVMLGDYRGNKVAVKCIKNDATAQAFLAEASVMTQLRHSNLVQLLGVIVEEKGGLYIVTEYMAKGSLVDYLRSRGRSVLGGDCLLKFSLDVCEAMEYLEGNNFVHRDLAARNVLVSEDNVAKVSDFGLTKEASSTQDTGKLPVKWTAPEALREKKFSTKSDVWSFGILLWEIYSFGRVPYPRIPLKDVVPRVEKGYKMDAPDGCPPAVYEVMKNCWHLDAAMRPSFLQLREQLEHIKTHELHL", "assay": "KiNativ in situ kinase profiling in melanoma cell lysates", "format": "binding", "parameters": "we tested the endogenous kinome response to SAB298; host or cells: YUSIV and YUSIK melanoma cell lysates", "conditions": "3-point dose response", "method": "as §1"}, "ERBB2": {"biological_target": "ERBB2 (Homo sapiens, UniProt P04626)", "sequence (P04626 23-1255)": "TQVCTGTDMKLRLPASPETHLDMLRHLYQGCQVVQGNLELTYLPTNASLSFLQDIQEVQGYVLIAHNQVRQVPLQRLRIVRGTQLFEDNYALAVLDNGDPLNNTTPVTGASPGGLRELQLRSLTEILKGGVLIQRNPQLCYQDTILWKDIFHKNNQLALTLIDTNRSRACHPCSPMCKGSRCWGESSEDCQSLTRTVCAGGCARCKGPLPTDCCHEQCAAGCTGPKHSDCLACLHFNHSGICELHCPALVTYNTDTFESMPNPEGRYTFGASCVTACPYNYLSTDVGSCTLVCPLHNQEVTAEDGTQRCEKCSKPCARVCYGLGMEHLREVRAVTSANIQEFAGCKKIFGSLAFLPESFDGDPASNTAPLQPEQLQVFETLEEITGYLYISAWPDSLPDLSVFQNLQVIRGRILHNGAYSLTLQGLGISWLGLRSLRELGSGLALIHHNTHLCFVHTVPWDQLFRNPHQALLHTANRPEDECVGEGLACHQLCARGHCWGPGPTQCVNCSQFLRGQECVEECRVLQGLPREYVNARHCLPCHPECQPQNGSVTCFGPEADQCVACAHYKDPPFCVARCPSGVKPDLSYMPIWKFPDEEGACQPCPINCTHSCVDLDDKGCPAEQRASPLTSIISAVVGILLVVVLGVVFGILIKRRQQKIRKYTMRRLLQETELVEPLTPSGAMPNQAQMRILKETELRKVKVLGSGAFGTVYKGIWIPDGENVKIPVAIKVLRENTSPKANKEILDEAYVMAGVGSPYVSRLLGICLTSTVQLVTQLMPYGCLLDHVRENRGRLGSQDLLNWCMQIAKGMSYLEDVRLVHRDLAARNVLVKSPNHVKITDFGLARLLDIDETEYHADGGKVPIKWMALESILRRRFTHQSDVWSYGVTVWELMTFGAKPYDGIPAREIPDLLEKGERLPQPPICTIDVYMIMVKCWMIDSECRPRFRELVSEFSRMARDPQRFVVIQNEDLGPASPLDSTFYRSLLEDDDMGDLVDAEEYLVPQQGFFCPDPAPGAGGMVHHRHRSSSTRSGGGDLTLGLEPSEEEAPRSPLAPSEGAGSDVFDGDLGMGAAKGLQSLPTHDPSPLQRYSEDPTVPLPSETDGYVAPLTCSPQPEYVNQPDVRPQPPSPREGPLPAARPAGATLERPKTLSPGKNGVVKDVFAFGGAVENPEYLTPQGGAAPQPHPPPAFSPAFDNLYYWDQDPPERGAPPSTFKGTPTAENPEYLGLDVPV", "assay": "KiNativ in situ kinase profiling in melanoma cell lysates", "format": "binding", "parameters": "we tested the endogenous kinome response to SAB298; host or cells: YUSIV and YUSIK melanoma cell lysates", "conditions": "for IC50: 3-point dose response", "method": "as §1"}, "ABL2": {"biological_target": "ABL2 (Homo sapiens, UniProt P42684)", "sequence (P42684 whole entry)": "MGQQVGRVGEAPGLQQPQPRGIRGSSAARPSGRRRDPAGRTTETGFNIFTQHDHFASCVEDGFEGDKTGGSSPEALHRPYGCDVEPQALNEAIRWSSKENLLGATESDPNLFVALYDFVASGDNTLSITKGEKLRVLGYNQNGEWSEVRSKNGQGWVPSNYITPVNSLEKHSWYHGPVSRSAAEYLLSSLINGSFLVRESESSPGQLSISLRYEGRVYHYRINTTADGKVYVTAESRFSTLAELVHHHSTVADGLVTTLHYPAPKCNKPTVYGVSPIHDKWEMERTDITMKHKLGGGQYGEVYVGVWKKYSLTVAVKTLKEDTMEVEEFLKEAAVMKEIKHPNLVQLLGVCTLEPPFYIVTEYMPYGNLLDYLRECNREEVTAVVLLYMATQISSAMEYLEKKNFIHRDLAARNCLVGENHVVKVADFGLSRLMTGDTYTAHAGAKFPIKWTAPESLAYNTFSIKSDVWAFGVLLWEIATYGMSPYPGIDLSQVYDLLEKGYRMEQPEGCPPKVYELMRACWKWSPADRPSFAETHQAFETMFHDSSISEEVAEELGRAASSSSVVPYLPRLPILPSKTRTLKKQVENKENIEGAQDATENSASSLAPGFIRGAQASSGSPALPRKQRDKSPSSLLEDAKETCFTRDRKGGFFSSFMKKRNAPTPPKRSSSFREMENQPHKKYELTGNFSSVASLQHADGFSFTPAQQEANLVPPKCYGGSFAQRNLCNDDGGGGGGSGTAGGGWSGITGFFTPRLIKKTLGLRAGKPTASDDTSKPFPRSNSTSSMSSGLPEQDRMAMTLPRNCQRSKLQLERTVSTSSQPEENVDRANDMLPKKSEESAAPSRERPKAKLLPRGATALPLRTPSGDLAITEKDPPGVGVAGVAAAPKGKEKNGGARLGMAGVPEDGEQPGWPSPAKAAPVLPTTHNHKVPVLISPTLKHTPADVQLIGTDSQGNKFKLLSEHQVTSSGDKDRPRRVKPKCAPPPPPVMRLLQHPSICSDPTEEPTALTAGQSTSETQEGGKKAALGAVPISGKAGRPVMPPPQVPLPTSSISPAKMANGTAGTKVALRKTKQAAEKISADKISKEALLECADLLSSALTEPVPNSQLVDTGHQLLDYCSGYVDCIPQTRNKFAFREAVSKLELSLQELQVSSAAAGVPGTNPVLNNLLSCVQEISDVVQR", "assay": "KiNativ in situ kinase profiling in melanoma cell lysates", "format": "binding", "parameters": "we tested the endogenous kinome response to SAB298; host or cells: YUSIV and YUSIK melanoma cell lysates", "conditions": "3-point dose response", "method": "as §1"}, "M14 melanoma cell line": {"system": "M14 melanoma cell line", "assay": "NCI-60 human tumor cell line screen", "format": "cell-based", "method": "(§2) We first tested the impact of SAB298 on NCI-60 human tumor cell lines that included eight melanomas (performed by the NCI Development Therapeutics Program).\n(§3) SFK-inhibitors were tested on a panel of NCI-60 cell lines (Supplementary Table 1) and 30 melanoma cell lines and NBMEL, i.e., normal human melanocytes isolated from a newborn foreskin (Table 1 and Supplementary Table 2). The Yale melanoma cohort designated YU originated from tumors excised to improve patient quality of life and used with participants’ informed consent according to Health Insurance Portability and Accountability Act (HIPAA) regulations with Human Investigative Committee protocol.\n(§4) Supplementary Table 1: Cellular activity of SAB298 in a Panel of NCI-60 cancer cell lines*\n(§5) measured protein; and TI is LC50/GI50.\n(§6) Supplementary Table 2: Description of Melanoma Cell lines. See Supplementary_Table_2"}, "SR leukemia cell line": {"system": "SR leukemia cell line", "assay": "NCI-60 human tumor cell line screen", "format": "cell-based", "method": "as §2, §3, §4, §5, §6"}, "[1]": {"system": "KM12 colon cancer cell line", "assay": "NCI-60 human tumor cell line screen", "format": "cell-based", "method": "as §2, §3, §4, §5, §6"}, "[2]": {"system": "MALME-3M melanoma cell line", "assay": "NCI-60 human tumor cell line screen", "format": "cell-based", "method": "as §2, §3, §4, §5, §6"}, "[3]": {"system": "SK-MEL-5 melanoma cell line", "assay": "NCI-60 human tumor cell line screen", "format": "cell-based", "method": "as §2, §3, §4, §5, §6"}, "[4]": {"system": "SK-MEL-2 melanoma cell line", "assay": "NCI-60 human tumor cell line screen", "format": "cell-based", "method": "as §2, §3, §4, §5, §6"}, "[5]": {"system": "UACC-257 melanoma cell line", "assay": "NCI-60 human tumor cell line screen", "format": "cell-based", "method": "as §2, §3, §4, §5, §6"}, "HOP-62 NSCLC cell line": {"system": "HOP-62 NSCLC cell line", "assay": "NCI-60 human tumor cell line screen", "format": "cell-based", "method": "as §2, §3, §4, §5, §6"}, "[6]": {"system": "SK-MEL-28 melanoma cell line", "assay": "NCI-60 human tumor cell line screen", "format": "cell-based", "method": "as §2, §3, §4, §5, §6"}, "[7]": {"system": "MDA-MB-435 melanoma cell line", "assay": "NCI-60 human tumor cell line screen", "format": "cell-based", "method": "as §2, §3, §4, §5, §6"}, "[8]": {"assay": "Clinical signs of toxicity in tumor bearing mice", "format": "in vivo", "conditions": "daily intraperitoneal SAB298", "method": "All procedures involving animals were approved by the Institutional Animal Care and Use Committee of Yale University. YUSIK melanoma cells were grown to 80% confluency in 150 cm^2 flasks, detached by trypsinization, washed with PBS, and cell pellets were resuspended in 1:1 mixture of PBS and matrigel (BD Bioscience Cat #354234) to sustain cell viability. The cells (4 × 10^6/100 µl) were injected subcutaneously in the back flank of six weeks old female athymic Nude-Foxn1nu (nu/nu) mice (Charles River Laboratories, Wilmington, MA), and tumors were measuring daily with a caliper (length, width, and depth). When tumors reached palpable size (between 25–40 mm^3), the animals were randomized by tumor size and body weigh into two groups and were daily injected intraperitoneally with SAB298 (batch #AU0588-91, Sabila Biosciences LLC, 5 Overlook Road, New City, New York, 10956) or vehicle as controls (N = 6/each). […] The vehicle contained the same reagents but without SAB298.\nThe tumors size and body weight were measured daily and the mice were checked for clinical signs of toxicity, such as lethargy, neurological symptoms, diarrhea, discharges, morbidity, piloerection and weight loss (>20%)."}, "[9]": {"conditions": "50% growth inhibition, five dose, average of 2 experiments"}, "[10]": {"conditions": "cytotoxic concentration, 50% reduction in measured protein, read-out: LC50 (the source's name)"}}, "data": [{"smiles": "Nc1ncnc2c1c(-c1ccc(Oc3ccccc3)cc1)nn2C[C@@H]1SSC[C@@H]1O", "note": "[SAB298, (3S, 4S)-3-((4-amino-3-(4-phenoxyphenyl)-1H-pyrazolo[3,4-d]pyrimidin-1-yl)methyl)-1,2-dithiolan-4-ol]", "values": [{"measurement": "IC50", "setting": "YES1", "result": "< 10", "unit": "nM"}, {"measurement": "IC50", "setting": "LCK", "result": 1400, "unit": "nM"}, {"measurement": "IC50", "setting": "CSK; CSK in YUSIK lysate", "result": 910, "unit": "nM"}, {"measurement": "IC50", "setting": "CSK; CSK in YUSIV lysate", "result": 420, "unit": "nM"}, {"measurement": "higher binding affinity in KiNativ assay compared to radioisotope filtration binding assay", "setting": "ERBB2; ERBB2", "result": "~20", "unit": "fold"}, {"measurement": "IC50", "setting": "ERBB2; ERBB2 in YUSIK lysate", "result": 530, "unit": "nM"}, {"measurement": "IC50", "setting": "ERBB2; ERBB2 in YUSIV lysate", "result": 410, "unit": "nM"}, {"measurement": "IC50", "setting": "ABL2; ABL2 in YUSIK lysate", "result": 240, "unit": "nM"}, {"measurement": "IC50", "setting": "ABL2; ABL2 in YUSIV lysate", "result": 87, "unit": "nM"}, {"measurement": "GI50", "setting": "M14 melanoma cell line; [9]", "result": 21, "unit": "nM"}, {"measurement": "CC50", "setting": "M14 melanoma cell line; [10]", "result": 105, "unit": "nM"}, {"measurement": "GI50", "setting": "SR leukemia cell line; [9]", "result": 38, "unit": "nM"}, {"measurement": "CC50", "setting": "SR leukemia cell line; [10]", "result": "> 100000", "unit": "nM"}, {"measurement": "GI50", "setting": "[1]; [9]", "result": 181, "unit": "nM"}, {"measurement": "CC50", "setting": "[1]; [10]", "result": 79300, "unit": "nM"}, {"measurement": "GI50", "setting": "[2]; [9]", "result": 550, "unit": "nM"}, {"measurement": "CC50", "setting": "[2]; [10]", "result": "> 100000", "unit": "nM"}, {"measurement": "GI50", "setting": "[3]; [9]", "result": 251, "unit": "nM"}, {"measurement": "CC50", "setting": "[3]; [10]", "result": 2680, "unit": "nM"}, {"measurement": "GI50", "setting": "[4]; [9]", "result": 212, "unit": "nM"}, {"measurement": "CC50", "setting": "[4]; [10]", "result": 19400, "unit": "nM"}, {"measurement": "GI50", "setting": "[5]; [9]", "result": 374, "unit": "nM"}, {"measurement": "CC50", "setting": "[5]; [10]", "result": 93500, "unit": "nM"}, {"measurement": "GI50", "setting": "HOP-62 NSCLC cell line; [9]", "result": 227, "unit": "nM"}, {"measurement": "CC50", "setting": "HOP-62 NSCLC cell line; [10]", "result": 23600, "unit": "nM"}, {"measurement": "GI50", "setting": "[6]; [9]", "result": 88, "unit": "nM"}, {"measurement": "CC50", "setting": "[6]; [10]", "result": "> 100000", "unit": "nM"}, {"measurement": "GI50", "setting": "[7]; [9]", "result": 103, "unit": "nM"}, {"measurement": "CC50", "setting": "[7]; [10]", "result": 618, "unit": "nM"}, {"measurement": "Clinical signs of toxicity (lethargy, neurological symptoms, diarrhea, discharges, morbidity, piloerection, weight loss >20%)", "setting": "[8]", "result": "None of them or any other abnormal indication were observed"}]}]}
